What all share (type): cell-based
Test [1] deals with mouse melanoma cells (B16). Kind of test: MTT cytotoxicity assay, B16 cells. The settings on record: 10 μg/mL (individual components at similar concentrations), MTT at 24 hours. An excerpt:
(§1) Preparation of Compositions: A process of preparing a composition comprising of Rh2, aPPD, and aPPT saponins and/or sapogenins from plants selected from the group consisting of panax ginseng, panax quinguefol and panax notoginseng, or a sapogenin source from some other plant, and proceeding according to the following steps: • (a) mixing the ginsenoside extract with water; • (b) (i) mixing the ginsenoside extract and water with a short-chain (1-5 carbon) alkali-metal alcoholate solution or a hydroxide-ethanol solution to produce a mixture; and • (ii) placing the resultant mixture in a reaction tank so that the resultant mixture can undergo chemical reactions at a temperature between 240 and 300° C. and at a pressure between 3.5 and 8.4 MPa; or • (c) (i) alternatively, mixing the ginsenosides extract with ethanol; • (ii) mixing the extract and ethanol with alkali-metal alcoholates solution to produce a mixture, and • (iii) placing the resultant mixture in a reaction tank so that the resultant mixture can undergo chemical reactions at a temperature between 240 and 300° C. and at a pressure between 3.5 and 8.4 MPa; and • (d) after the reaction is completed, collecting an intermediate product of a mix of saponins and/or sapogenins from the ethanol mixture. Cytotoxicity was measured using a standard microculture tetrazolium assay (MTT) (Alley, M C et al, Cancer Research 48:589-601, 1988). Exponentially growing cultures of tumor cells, including multi-drug resistant cell lines, were used to make microtiter plate cultures. Cells were seeded at 1.2×10^3 cells per well in 96-well plates, and grown overnight at 37° C. Test compounds were then added. Cells were treated for 24 hours. To determine the number of viable cells in each well, the MTT dye was added (3-(4,5-dimethylthiazol-2-yl)-2,5-diphenyltetrazolium bromide in saline) in accordance with the standard practice known in the art.
Cultured mouse melanoma cells (B16) were treated with the saponins and sapogenins Rh2, aPPT, and aPPD, individually, at various concentrations. […]

The test system of test [2] is human glioma tumor cells (U87). Kind of test: MTT cytotoxicity assay, U87 cells. The settings on record: 15 μg/mL (individual components at similar concentrations), MTT at 24 hours.
Description: as §1
Cultured human glioma tumor cells (U87) were treated with the saponins and sapogenins Rh2, aPPT, and aPPD, individually, at various concentrations. […]
(Tetrazolium assays rely on reduction of a dye to a coloured formazan, in cell work by metabolically active cells.)

Test [3] has as its system human breast cancer cells (MCF7). Kind of test: MTT cytotoxicity assay, MCF7 cells. As to conditions: 15 μg/mL (individual components at similar concentrations), MTT at 24 hours.
Description: as §1
Cultured human breast cancer cells (MCF7) were treated with the saponins and sapogenins Rh2, aPPT, and aPPD, individually, at various concentrations. […]

Consider `CC(C)=CCC[C@](C)(O)[C@H]1CC[C@]2(C)[C@@H]1[C@H](O)C[C@@H]1[C@@]3(C)CC[C@H](O[C@@H]4O[C@H](CO)[C@@H](O)[C@H](O)[C@H]4O)C(C)(C)[C@@H]3CC[C@]12C` [Rh2, 3-O-β-D-glucopyranosyl-20(s)-protopanaxadiol], for which the figures for the cancer cells killed in test [1], in test [2] and in test [3] were 56%, 64% and 68%, respectively.

For the compound `CC(C)=CCC[C@@](C)(O)[C@H]1CC[C@]2(C)[C@@H]1[C@H](O)C[C@@H]1[C@@]3(C)CC[C@H](O)C(C)(C)[C@@H]3CC[C@]12C` [aPPD, aglycon protopanaxadiol], the cancer cells killed came to 44% in test [1], 52% in test [2] and 69% in test [3].

In the case of `CC(C)=CCC[C@](C)(O)[C@H]1CC[C@]2(C)[C@@H]1[C@H](O)C[C@@H]1[C@@]3(C)CC[C@H](O)C(C)(C)[C@@H]3[C@@H](O)C[C@]12C` [aPPT, aglycon protopanaxatriol], the cancer cells killed amounted to 47% in test [1], 29% in test [2] and 68% in test [3].

The values above are taken from patent US20060013897A1, “Compositions for cancer therapy saponins or sapogenins” (priority 2002, published 2006).
